From paper PMC6712002, “Comprehensive in vitro characterization of PD-L1 small molecule inhibitors” (Scientific Reports, 2019)
Entries after “also recorded” stand apart in the source; their conditions may differ. Bridge positions count the residues as written; N and C are the ends. Square brackets hold non-standard residues; d marks the D form. Peptide text beside a SMILES is read from it. NMeNle = CCCC[C@H](NC)C(=O)O; NMeA = CN[C@@H](C)C(=O)O

Experiments:
[1] = biological target: human PD-1 protein (Homo sapiens, UniProt Q15116); assay: DSF of PD-1; assay type: binding
human PD-1 protein, sequence (Q15116 25-288): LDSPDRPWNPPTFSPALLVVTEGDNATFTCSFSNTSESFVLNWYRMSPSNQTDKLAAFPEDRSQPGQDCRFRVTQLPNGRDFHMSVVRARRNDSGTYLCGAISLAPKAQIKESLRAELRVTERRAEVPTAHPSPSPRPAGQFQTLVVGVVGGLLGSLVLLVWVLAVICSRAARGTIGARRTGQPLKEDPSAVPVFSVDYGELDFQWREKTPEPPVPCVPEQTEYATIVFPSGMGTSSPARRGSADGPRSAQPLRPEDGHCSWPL

[2] = tested on: Jurkat cells; assay: Jurkat cell viability, CellTiter-Glo; assay type: cell-based; conditions: 24 h; for effect on cell viability: concentrations tested; for concentration significantly decreasing cell viability: vs DMSO control
[3] = tested on: HepG2 cells; assay: HepG2 cell viability, CCK-8 assay; assay type: cell-based, human; conditions: HepG2, 24 h; for effect on cell viability: various concentrations tested; for concentration significantly reducing cell viability / concentration without significant effect on cell viability: CCK-8
Procedure: We also evaluated the acute cytotoxicity of the BMS and Aurigene compounds by testing the effects of compound treatment on the viability of HepG2 cell line. […] The purpose of using HepG2 cells, thus, would allow for evaluation of the parent molecules and potential metabolites for cytotoxicity. The cells were treated with the compounds for 24 h and then the cell viability was assessed by the CCK-8 assay (Fig. 7C).
The acute cytotoxicity of the test compounds was also evaluated by administering the test compounds to human hepatoma (HepG2) cells and assessing their viability (metabolic viability) using the CCK-8 assay (based on WST-8). HepG2 cells are commonly used in the early screening stages for new chemical entities, and the CCK-8 assay has been well established as a sensitive and reliable indicator for cellular metabolic activity (viability) for this purpose. HepG2 cells were obtained from ATCC (HB-8065; Manassas, VA) and maintained in DMEM culture medium in a water-jacketed incubator (5% CO2, 37 °C). […] At this time point, cells were treated with WST-8 based on the manufacturer’s protocol (CCK-8 kit, Dojindo Molecular Technologies, Rockville, MD). Cell viability calculations were also carried out according to the manufacturer’s protocol, which included accounting for potential interference from test compounds, and comparisons to appropriate controls. GraphPad Prism was used for data analysis and graphical representation.

[4] = tested on: PD-1/NFAT reporter Jurkat cells co-cultured with TCR activator/PD-L1-CHO cells; assay: Bioluminescent PD-1/PD-L1 cell-based assay (NFAT luciferase reporter)
[5] = biological target: T1, PD-L1 (Homo sapiens, UniProt Q9NZQ7); assay: Differential scanning fluorimetry (DSF) of PD-L1; assay type: binding; conditions: PD-L1 10 µM, compound 50 µM
T1 construct: human PD-L1 (residues 18–134) was cloned into pET21b vector; made in house
T1 sequence (Q9NZQ7 18-134): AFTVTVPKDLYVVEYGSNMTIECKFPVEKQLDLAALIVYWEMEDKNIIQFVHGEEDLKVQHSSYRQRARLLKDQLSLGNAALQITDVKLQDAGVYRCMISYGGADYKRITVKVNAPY

[6] = biological target: Fc-PD-L1 (Homo sapiens, UniProt Q9NZQ7); assay: SPR binding to captured Fc-PD-L1; conditions: Fc-PD-L1 captured on Protein A chip, 25 °C
Fc-PD-L1, sequence (Q9NZQ7 19-238 limits assumed): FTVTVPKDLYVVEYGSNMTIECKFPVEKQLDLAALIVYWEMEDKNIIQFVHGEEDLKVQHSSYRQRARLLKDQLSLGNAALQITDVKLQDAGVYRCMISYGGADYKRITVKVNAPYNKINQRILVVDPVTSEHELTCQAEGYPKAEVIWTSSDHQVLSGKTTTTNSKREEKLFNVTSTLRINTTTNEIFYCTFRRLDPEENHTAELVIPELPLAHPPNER

[7] = biological target: T1, PD-L1; assay: 1D NMR STD and WaterLOGSY binding; conditions: 12 µM PD-L1, 200 µM compound
Procedure: In addition, we also employed 1D NMR-based methods, saturation transfer difference (STD) and WaterLOGSY techniques, to unambiguously rule-out the binding of Aurigene-1 to PD-L1 protein. STD and WaterLOGSY are popular ligand-based approaches to detect the binding of protein-protein inhibitors.
NMR samples contained 12 µM of protein, 200 µM of compound in 1x PBS (phosphate-buffered saline buffer, pH 7.5) and 0.25 mM 2,2-dimethyl-2-silapentane-5-sulfonate-d6 sodium salt (DSS-d6) as an NMR internal reference in 95/5% H2O/D2O or 100% D2O. […] NMR spectroscopy was performed at the Nanuc NMR Centre on a 2.2 K pumped-800 MHz Oxford magnet updated to a Bruker Neo-Advance IV console equipped with a 5 mm cryoprobe and SampleJet robotics.
Fig. S3: STD and WaterLOGSY experiments of PD-L1 binding to Aurigene-1. Blue - 1D spectrum of Aurigene-1, Red and Green -STD and WaterLOGSY spectra respectively of 12 μM of PD-L1 with 200 μM of Aurigene-1

[8] = biological target: T2, PD-1/PD-L1 binding (Homo sapiens, UniProt Q9NZQ7); assay: PD-1/PD-L1 ELISA competition assay, reverse configuration (PD-1 coated, biotinylated PD-L1); assay type: biochemical; conditions: biotin tagged PD-L1
Target sequence in this assay (Q9NZQ7 19-238 limits assumed): as above

[9] = biological target: T2, PD-1/PD-L1 binding; assay: PD-1/PD-L1 ELISA competition assay (PD-L1 coated, biotinylated PD-1); assay type: biochemical; set-up: purchased R&D Systems (Fc-PD-L1); Acro Biosystems (biotinylated PD-1)
Target sequence in this assay (Q9NZQ7 19-239 limits assumed): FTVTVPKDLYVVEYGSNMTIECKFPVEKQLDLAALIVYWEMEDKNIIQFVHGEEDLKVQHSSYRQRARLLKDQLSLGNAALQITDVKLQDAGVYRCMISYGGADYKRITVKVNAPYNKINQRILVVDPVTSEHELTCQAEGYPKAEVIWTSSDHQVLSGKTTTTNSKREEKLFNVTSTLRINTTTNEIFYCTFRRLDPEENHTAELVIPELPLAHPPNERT

[10] = tested on: peripheral blood mononuclear cells (PBMCs); assay type: cell-based, human
[11] = biological target: T1, PD-L1; assay: Microscale thermophoresis (MST) binding to labeled PD-L1; conditions: labeled PD-L1 60 nM
[12] = tested on: mouse splenocytes; set-up: method as in earlier work; conditions: CFSE proliferation assay with recombinant PD-L1; cited from earlier work
[13] = tested on: CHO cells; assay: CHO cell viability, CellTiter-Glo; conditions: 24 h; for concentration significantly reducing cell viability: vs DMSO control
[14] = biological target: T3, Fc-B7-1 (Homo sapiens, UniProt P33681); assay: SPR binding to captured Fc-B7-1 (specificity)
T3 sequence (P33681 35-242 limits assumed): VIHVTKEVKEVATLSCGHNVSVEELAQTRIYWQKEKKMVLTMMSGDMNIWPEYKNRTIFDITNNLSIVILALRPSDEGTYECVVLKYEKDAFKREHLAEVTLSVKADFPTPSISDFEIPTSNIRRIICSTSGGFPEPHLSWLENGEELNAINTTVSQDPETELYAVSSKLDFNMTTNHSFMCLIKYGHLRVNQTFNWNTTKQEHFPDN

[15] = tested on: PD-1 negative Jurkat T cells; assay: Counter-screen NFAT luciferase reporter in PD-1 negative Jurkat T cells; assay type: cell-based; conditions: 24.5 μM and 49 μM
[16] = tested on: PD-1/PD-L1; conditions: read-out: IC50 (HTRF); original disclosure; cited from earlier work
[17] = biological target: PD-1/PD-L1 interface (Homo sapiens, UniProt Q9NZQ7); assay: Binding to the PD-1/PD-L1 interface (method not given)
PD-1/PD-L1 interface, sequence (Q9NZQ7 19-290): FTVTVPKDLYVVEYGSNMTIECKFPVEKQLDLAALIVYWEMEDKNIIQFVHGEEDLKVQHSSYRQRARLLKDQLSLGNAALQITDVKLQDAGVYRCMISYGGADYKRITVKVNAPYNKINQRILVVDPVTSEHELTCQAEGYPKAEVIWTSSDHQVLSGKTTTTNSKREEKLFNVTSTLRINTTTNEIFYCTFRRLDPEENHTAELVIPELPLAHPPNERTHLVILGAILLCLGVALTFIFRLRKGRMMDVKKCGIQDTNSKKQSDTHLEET

[18] = tested on: peripheral blood mononuclear cells (PBMCs); assay: IFN-γ production by SEB-stimulated PBMCs (ELISA); assay type: cell-based, human

Structure (SMILES): CC(O)[C@H](NC(=O)N[C@@H](CC(N)=O)c1nc([C@@H](N)CO)no1)C(=O)O (some centres unmarked) [Aurigene-1]
- thermal stability of PD-1 protein [1]: did not increase the thermal stability of PD-1 protein; also recorded: did not induce thermal stability to the human PD-1 protein
- effect on cell viability [2]: did not show any effect on the cell viability
- effect on cell viability [3]: did not show any effects on the cell viability
- NFAT activity ([4]; 55.5 μM, 27.8 μM, 13.9 μM, 2.8 μM and 1.4 μM): none of these concentrations facilitated NFAT activity
- shift of Tm of PD-L1 [5]: 0.7 ± 0.1 °C
- Rmax (maximum binding response) [6]: 0.78 ± 0.36 RU
- binding to PD-L1 (STD, WaterLOGSY NMR) [7]: does not bind to PD-L1 protein
- inhibition of PD-1/PD-L1 binding, reverse configuration [8]: did not show inhibition of PD-1/PD-L1 binding
- inhibition of PD-1/PD-L1 binding ([9]; 7.8 µM to 500 µM): did not inhibit the PD-1/PD-L1 binding
- effect on IL-2 production [10]: cannot enhance IL-2 production
- binding to PD-L1 (MST fluorescence response) [11]: no change in fluorescence
- rescue of mouse splenocyte proliferation [12]: 97%

Structure (SMILES): COc1cc(OCc2cccc(-c3ccccc3)c2C)cc(OC)c1CNCCO [BMS-103]
- concentration completely abolishing cell viability [2]: ≥ 2.4 µM
- concentration significantly decreasing cell viability [2]: 0.4 µM
- concentration significantly reducing cell viability [3]: ≥ 12.2 µM
- concentration without significant effect on cell viability [3]: up to 2.4 µM
- concentration significantly reducing cell viability [13]: ≥ 12.2 µM
- IL-2 production vs positive control [10]: significantly lower levels of IL-2 than the positive control
- binding with captured Fc-B7-1 [14]: None of the BMS inhibitors (BMSpep-57, BMS-103 and BMS-142) showed binding
- luminescence of PD-1 negative Jurkat cells [15]: substantially low

Structure (SMILES): COc1cc(OCc2cccc(-c3ccccc3)c2C#N)cc(OC)c1CNCCO [BMS-142]
- concentration without any effect on cell viability [2]: up to 2.4 µM
- concentration significantly decreasing cell viability [2]: ≥ 12 µM
- concentration significantly reducing cell viability [3]: ≥ 48 µM
- NFAT activity vs cells only ([4]; 12.3 μM, 2.4 μM and […]): no change in NFAT activity
- NFAT activity (interaction with PD-1/PD-L1) ([4]; 24 µM and 48 µM): sometimes interacted weakly with PD-1/PD-L1, although this was not statistically significant
- IC50 [16]: 0.006 to 0.1 µM
- concentration without any effect on cell viability [13]: up to 2.4 µM
- concentration significantly reducing cell viability [13]: ≥ 12 µM
- binding with captured Fc-B7-1 [14]: None of the BMS inhibitors (BMSpep-57, BMS-103 and BMS-142) showed binding

Structure (SMILES): CCCC[C@H]1C(=O)N(C)[C@@H](CCCC)C(=O)N[C@@H](CCCNC(=N)N)C(=O)N[C@H](C(=O)NCC(N)=O)CSCC(=O)N[C@@H](Cc2ccccc2)C(=O)N(C)[C@@H](C)C(=O)N[C@@H](CC(N)=O)C(=O)N2CCC[C@H]2C(=O)N[C@@H](Cc2cnc[nH]2)C(=O)N[C@@H](CC(C)C)C(=O)N[C@@H](CO)C(=O)N[C@@H](Cc2c[nH]c3ccccc23)C(=O)N[C@@H](CO)C(=O)N[C@@H](Cc2c[nH]c3ccccc23)C(=O)N1C [BMSpep-57] ({CH2CO}-F[NMeA]NPHLSWSW[NMeNle][NMeNle]RCG-NH2; thioether N-14)
- effect on cell viability [2]: did not show any effect on the cell viability
- effect on cell viability [3]: did not show any effects on the cell viability

Structure (SMILES): CCCC[C@H]1C(=O)N(C)[C@@H](CCCC)C(=O)N[C@@H](CCCNC(=N)N)C(=O)N[C@H](C(=O)NCC(N)=O)CSCC(=O)N[C@@H](Cc2ccccc2)C(=O)N(C)[C@@H](C)C(=O)N[C@@H](CC(N)=O)C(=O)N2CCC[C@H]2C(=O)N[C@@H](Cc2c[nH]cn2)C(=O)N[C@@H](CC(C)C)C(=O)N[C@@H](CO)C(=O)N[C@@H](Cc2c[nH]c3ccccc23)C(=O)N[C@@H](CO)C(=O)N[C@@H](Cc2c[nH]c3ccccc23)C(=O)N1C [BMSpep-57] ({CH2CO}-F[NMeA]NPHLSWSW[NMeNle][NMeNle]RCG-NH2; thioether N-14; N-terminus and C-terminus assumed)
- inhibition at 0.3 µM ([9]; at 300 nM): 98.1%

Structure (SMILES): Cc1ccc2ccccc2c1CN1CCN(c2c([N+](=O)[O-])c(=O)n(C)c3ccccc23)CC1 [Compound A]
- concentration without significant effect on cell viability [3]: ≤ 90 µM
- binding to the PD-1/PD-L1 interface [17]: did not bind to the PD-1/PD-L1 interface
- fold IFN-γ production vs untreated cells [18]: approximately 1.2 fold
